Values after ≈ are worked out from the molar mass of the structure shown.

Data set [1] is described as follows: Aqueous solubility (laser nephelometry). The format is physicochemical. The note with it: aqueous assay buffer pH 6.5 with 1% DMSO, aqueous buffer, kinetic from dmso stock; pH 6.5, 1% DMSO, 30 minute incubation at 25° C.; read-out: solubility ranges at pH 6.5. The protocol:
Test compounds prepared in DMSO were screened in duplicate over a range of concentrations (1.6-100 ug/mL) in different aqueous media (for example a pH6.5 buffers which are relevant to the stomach and upper regions of the small intestine and therefore important when predicting the amount of drug likely to be in solution following oral administration). Test compounds were serially diluted in 100% DMSO ranging from 10-0.16 mg/mL. These titrated DMSO stocks were then further diluted 1:100 with assay buffer and added to test plates (UV Star Griener 384 well plates), maintaining the DMSO concentration at 1%.

Data set [2] deals with genotype 1b (Con 1) subgenomic replicon cell line. The data set can be described thus: HCV replicon assay, genotype 1b, Renilla luciferase reporter. The format is cell-based. The note with it: Hepatitis C virus; 72 hours incubation, Renilla luciferase activity. The method, then: A genotype 1b (Con 1) subgenomic replicon cell line based on Blight et al., Science 2000 290: 1972-1974, modified to express a Renilla luciferase reporter gene was used to assess antiviral activity of test compounds. Cell cultures were maintained in a sub-confluent state in DMEM with glutamine, 10% heat-inactivated foetal bovine serum (FBS) and G418 (Geneticin®).
For assay, cells were seeded at a density of 7000 cells/well into 96 well tissue culture trays in culture media lacking G418. Compounds were tested in a three fold dilution series, for example starting from 50 uM. After 72 hours incubation at 37° C. and 5% CO2, Renilla luciferase activity was quantified via the Promega Renilla Luciferase or Renilla-Glo™ Luciferase Assay Systems (Promega corporation. The same method was employed for replicon assays using subgenomic genotype 1a (H77) and 2a (JFH-1) replicon cell lines with a seeding cell density of 5000 cells/well for the 2a cell lines.
The compound concentration that reduced luciferase activity by 50% (EC50) was calculated using non-linear regression.

The target of a further data set is T1, 1b (BK) NS5BΔ21 (Hepatitis C virus genotype 1b, UniProt P26663).
T1 construct: 100 nM 1b (BK) NS5BΔ21
T1 sequence (P26663 2420-2989, stated change not applied): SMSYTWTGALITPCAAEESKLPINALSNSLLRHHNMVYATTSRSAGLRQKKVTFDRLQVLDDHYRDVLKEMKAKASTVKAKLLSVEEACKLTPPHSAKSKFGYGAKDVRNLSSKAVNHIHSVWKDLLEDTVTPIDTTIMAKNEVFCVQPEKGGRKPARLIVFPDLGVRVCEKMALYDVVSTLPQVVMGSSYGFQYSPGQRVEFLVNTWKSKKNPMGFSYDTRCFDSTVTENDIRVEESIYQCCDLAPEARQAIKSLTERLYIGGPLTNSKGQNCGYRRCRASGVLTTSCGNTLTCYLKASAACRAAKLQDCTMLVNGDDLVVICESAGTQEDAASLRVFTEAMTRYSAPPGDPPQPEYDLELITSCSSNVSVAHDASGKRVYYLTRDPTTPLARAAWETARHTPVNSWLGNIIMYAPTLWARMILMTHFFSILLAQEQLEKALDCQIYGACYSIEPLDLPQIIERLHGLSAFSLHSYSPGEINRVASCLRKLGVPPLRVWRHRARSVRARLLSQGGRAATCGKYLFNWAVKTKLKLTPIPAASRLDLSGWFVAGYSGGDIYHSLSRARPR
The data set is described as follows: HCV polymerase inhibition assay. Type of data set: biochemical. The protocol:
HCV polymerase reactions were carried out using a modified method of Howe et al., Antimicrobial Agents and Chemotherapy 2004 48(12): 4813-4821. Reactions contained a final concentration of, 0.5% DMSO, 100 nM 1b (BK) NS5BΔ21, 20 mM Tris-HCl pH 7.5, 5 mM MgCl2, 5 mM MnCl2, 3 mM DTT, 0.05% BSA, 0.2 U/μL RNasin, 10 μg/mL Poly(rC) template, GTP (at Km) and 0.05 μCi/μL ^33P-GTP in a total reaction volume of 50 μL. Compounds were tested in a three fold dilution series, for example starting from 50 μM. Reactions were initiated with the addition of GTP and terminated after […] with 50 μL ice cold 0.2 M EDTA. Terminated reactions were transferred to DEAE 96-well filter plates, unincorporated nucleotides washed from the filters and 50 μL scintillation fluid added prior to reading on a scintillation counter. The compound concentration that reduced ^33P-GTP incorporation by 50% (IC50) was calculated using non-linear regression.

On to `CNC(=O)c1c2cc(C3CC3)c(N(CCC3(OC)CNC3)S(C)(=O)=O)cc2nn1-c1ccc(Cl)cc1` [Compound 29, 2-(4-chlorophenyl)-5-cyclopropyl-6-[2-(3-methoxyazetidin-3-yl)ethyl-methylsulfonyl-amino]-N-methyl-indazole-3-carboxamide], for which, in data set [1], the solubility (as a rule, how much of the substance goes into solution per volume) at 30 min was in the range of 12.5 to 25 µg/mL (≈ 23.5 to 47 µM). For the same molecule, the EC50 – broadly, the midpoint of the concentration-response curve – in data set [2] lay in the range of 1000 to 10000 nM. The half-inhibitory concentration (IC50) – broadly, the concentration needed to halve the response being measured – at 1b (BK) NS5BΔ21 is 1000 to 10000 nM.

Take `CNC(=O)c1c2cc(C3CC3)c(N(CCC3(OC)CN(C(C)=O)C3)S(C)(=O)=O)cc2nn1-c1ccc(Cl)cc1` [Compound 30, 6-[2-(1-acetyl-3-methoxy-azetidin-3-yl)ethyl-methylsulfonyl-amino]-2-(4-chlorophenyl)-5-cyclopropyl-N-methyl-indazole-3-carboxamide]: the solubility at 30 min in data set [1] lay within 50 to 100 µg/mL (≈ 87.1 to 174 µM). The concentration giving a half-maximal response (EC50) in data set [2] lay in the range of 500 to 990 nM. This molecule registered an IC50 against 1b (BK) NS5BΔ21 of 500 to 990 nM.

The values are drawn from patent publication US9120775B2, “Viral polymerase inhibitors” (Biota Scientific Management Pty Ltd, priority 2012, dated 2015).
